From patent US20180148418A1, “AMIDO-SUBSTITUTED CYCLOHEXANE DERIVATIVES” (Bayer Pharma Aktiengesellschaft, priority 2015, published 2018)

Key:
[1] = system: HEK293 cells cotransfected with the FOP control vector; test: HEK293 FOP assay (control reporter with non-functional TCF elements); format: cell-based; details: Homo sapiens, 16 hours
Outline: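 Compound series from 50 μM down to 15 nM, prediluted in DMSO then 50-fold into CAFTY buffer (pH 7.4, 2 mM Ca2+, 0.01% BSA), tested alongside TOP cells on a Geneticin-selected HEK293 FOP line whose TCF elements are replaced by a random sequence; recombinant human Wnt-3a applied at 2500-5 ng/ml.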

TNKS1 = target: T1, TNKS1 (Homo sapiens, UniProt O95271); test: TNKS1 Assay B (auto-parsylation, [3H]-NAD+ SPA); format: biochemical; details: 6 nM TNKS1, auto-parsylation, over night at room temperature
T1 construct: purchased BPS Bioscience, San Diego, USA 80579 (TNKS1 Histone Ribosylation Assay Kit)
T1 sequence (O95271 1-1327): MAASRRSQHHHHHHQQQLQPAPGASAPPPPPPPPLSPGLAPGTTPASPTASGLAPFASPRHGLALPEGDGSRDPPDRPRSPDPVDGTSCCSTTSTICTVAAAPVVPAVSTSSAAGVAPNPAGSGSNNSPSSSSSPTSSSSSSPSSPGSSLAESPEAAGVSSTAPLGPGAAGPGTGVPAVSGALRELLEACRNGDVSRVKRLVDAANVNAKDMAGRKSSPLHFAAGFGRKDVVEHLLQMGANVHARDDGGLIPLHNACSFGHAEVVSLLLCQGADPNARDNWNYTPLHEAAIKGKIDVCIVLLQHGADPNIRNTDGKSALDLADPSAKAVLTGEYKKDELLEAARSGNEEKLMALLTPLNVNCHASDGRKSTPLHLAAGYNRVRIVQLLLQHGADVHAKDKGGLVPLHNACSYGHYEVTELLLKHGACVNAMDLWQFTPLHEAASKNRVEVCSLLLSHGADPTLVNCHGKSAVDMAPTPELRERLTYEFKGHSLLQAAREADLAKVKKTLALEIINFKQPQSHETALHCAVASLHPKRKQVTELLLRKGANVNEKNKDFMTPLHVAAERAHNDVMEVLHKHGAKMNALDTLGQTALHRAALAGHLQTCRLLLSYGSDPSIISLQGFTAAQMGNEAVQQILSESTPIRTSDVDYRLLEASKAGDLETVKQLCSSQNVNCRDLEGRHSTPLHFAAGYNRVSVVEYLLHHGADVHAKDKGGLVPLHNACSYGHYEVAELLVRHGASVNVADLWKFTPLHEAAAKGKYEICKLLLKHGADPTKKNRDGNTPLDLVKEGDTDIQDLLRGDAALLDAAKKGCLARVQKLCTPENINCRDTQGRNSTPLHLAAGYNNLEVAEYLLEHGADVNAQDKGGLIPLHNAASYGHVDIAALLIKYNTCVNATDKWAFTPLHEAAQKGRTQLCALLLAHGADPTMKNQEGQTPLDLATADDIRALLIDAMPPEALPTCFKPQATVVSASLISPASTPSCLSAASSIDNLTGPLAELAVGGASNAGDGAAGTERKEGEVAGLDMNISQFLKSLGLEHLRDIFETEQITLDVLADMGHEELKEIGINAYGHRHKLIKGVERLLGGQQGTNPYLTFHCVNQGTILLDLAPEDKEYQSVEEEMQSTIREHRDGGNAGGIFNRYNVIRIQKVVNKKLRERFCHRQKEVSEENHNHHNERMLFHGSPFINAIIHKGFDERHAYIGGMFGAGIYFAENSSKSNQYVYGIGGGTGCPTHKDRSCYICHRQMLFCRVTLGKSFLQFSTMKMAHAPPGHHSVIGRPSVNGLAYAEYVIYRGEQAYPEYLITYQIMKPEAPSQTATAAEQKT

IC50 (TNKS1) [nM]	Structure (SMILES)	IC50 [1] [nM]
150	CNc1ccc2ncc(C(=O)N[C@H]3CC[C@H](C(=O)Nc4ccc(F)cc4Cl)CC3)n2n1 [Example 53, N-{trans-4-[(2-chloro-4-fluorophenyl)carbamoyl]cyclohexyl}-6-(methylamino)imidazo[1,2-b]pyridazine-3-carboxamide]	≥ 50000
65	CC(=O)c1cnc2c(C(=O)N[C@H]3CC[C@H](C(=O)Nc4ccc(F)cc4Cl)CC3)cnn2c1C [Example 46, 6-acetyl-N-{trans-4-[(2-chloro-4-fluorophenyl)carbamoyl]cyclohexyl}-7-methylpyrazolo[1,5-a]pyrimidine-3-carboxamide]	≥ 50000
57	CNC(=O)c1nc[nH]c1C(=O)N[C@H]1CC[C@H](C(=O)Nc2cc(C)c(F)cc2Cl)CC1 [Example 63, N^5-{trans-4-[(2-chloro-4-fluoro-5-methylphenyl)carbamoyl]cyclohexyl}-N^4-methyl-1H-imidazole-4,5-dicarboxamide]	≥ 50000
3600	CNC(=O)c1nc[nH]c1C(=O)N[C@H]1CC[C@H](C(=O)Nc2cc(N3CCOCC3)ccc2Cl)CC1 [Example 88, N^5-(trans-4-{[2-chloro-5-(morpholin-4-yl)phenyl]carbamoyl}cyclohexyl)-N^4-methyl-1H-imidazole-4,5-dicarboxamide]	≥ 50000
310	O=C(N[C@H]1CC[C@H](C(=O)Nc2ccc(F)cc2Cl)CC1)c1cnc2cccnn12 [Example 45, N-{trans-4-[(2-chloro-4-fluorophenyl)carbamoyl]cyclohexyl}imidazo[1,2-b]pyridazine-3-carboxamide]	≥ 50000
170	Cc1cc(C)n2ncc(C(=O)N[C@H]3CC[C@@]4(CCCN(c5cc(C)c(F)cc5Cl)C4=O)CC3)c2n1 [Example 302, N-[(trans)-2-(2-chloro-4-fluoro-5-methylphenyl)-1-oxo-2-azaspiro[5.5]undec-9-yl]-5,7-dimethylpyrazolo[1,5-a]pyrimidine-3-carboxamide]	≥ 500
37	CC(C)NCCNC(=O)c1nc[nH]c1C(=O)N[C@H]1CC[C@H](C(=O)Nc2ccc(F)cc2Cl)CC1 [Example 77, N^5-{trans-4-[(2-chloro-4-fluorophenyl)carbamoyl]cyclohexyl}-N^4-[2-(isopropylamino)ethyl]-1H-imidazole-4,5-dicarboxamide]	≥ 50000
> 10000	O=C(NC1CCC(F)(C(=O)Nc2ccc(F)cc2Cl)CC1)c1cnn2cccnc12 (single isomer, unassigned) [Example 365, N-{4-[(2-chloro-4-fluorophenyl)carbamoyl]-4-fluorocyclohexyl}pyrazolo[1,5-a]pyrimidine-3-carboxamide (single isomer)]	35000
57	Cc1nc2c(C(=O)N[C@H]3CC[C@H](C(=O)Nc4c(F)cc(F)cc4Cl)CC3)cnn2c2c1CCC2 [Example 363, N-{trans-4-[(2-chloro-4,6-difluorophenyl)carbamoyl]cyclohexyl}-5-methyl-7,8-dihydro-6H-cyclopenta[e]pyrazolo[1,5-a]pyrimidine-3-carboxamide]	≥ 50000
6.7	CNC(=O)c1nc[nH]c1C(=O)N[C@H]1CC[C@@]2(CCN(c3cc(C)c(F)cc3Cl)C2=O)CC1 [Example 288, N^5-[(trans)-2-(2-chloro-4-fluoro-5-methylphenyl)-1-oxo-2-azaspiro[4.5]dec-8-yl]-N^4-methyl-1H-imidazole-4,5-dicarboxamide]	20000
150	CNC(=O)c1[nH]cnc1C(=O)N[C@@H]1CC[C@@H](C(=O)Nc2ccc(F)cc2Cl)C[C@@H]1F (racemic) [Example 31, N^4-{(1α,2α,4β)-4-[(2-chloro-4-fluorophenyl)carbamoyl]-2-fluorocyclohexyl}-N^5-methyl-1H-imidazole-4,5-dicarboxamide]	≥ 50000
130	Cc1cc(N2CCC[C@]3(CC[C@@H](NC(=O)c4cnc5cccnn45)CC3)C2=O)c(Cl)cc1F [Example 301, N-[(trans)-2-(2-chloro-4-fluoro-5-methylphenyl)-1-oxo-2-azaspiro[5.5]undec-9-yl]imidazo[1,2-b]pyridazine-3-carboxamide]	≥ 500
410	O=C(N[C@H]1CC[C@H](C(=O)Nc2ccc(F)cc2Cl)CC1)c1cnc2ccc(N3CCOCC3)nn12 [Example 48, N-{trans-4-[(2-chloro-4-fluorophenyl)carbamoyl]cyclohexyl}-6-(morpholin-4-yl)imidazo[1,2-b]pyridazine-3-carboxamide]	14000
300	COCC(C)NC(=O)c1nc[nH]c1C(=O)N[C@H]1CC[C@H](C(=O)Nc2ccc(F)cc2Cl)CC1 (stereo partly drawn) [Example 82, N^5-{trans-4-[(2-chloro-4-fluorophenyl)carbamoyl]cyclohexyl}-N^4-(1-methoxypropan-2-yl)-1H-imidazole-4,5-dicarboxamide]	≥ 50000
> 10000	Cc1c(C(C)(C)O)cnc2c(C(=O)N[C@H]3CC[C@H](C(=O)Nc4ccc(F)cc4Cl)CC3)cnn12 [Example 359, N-{trans-4-[(2-chloro-4-fluorophenyl)carbamoyl]cyclohexyl}-6-(2-hydroxypropan-2-yl)-7-methylpyrazolo[1,5-a]pyrimidine-3-carboxamide]	≥ 50000
21	O=C(N[C@H]1CC[C@H](C(=O)Nc2ccc(F)cc2Cl)CC1)c1[nH]cnc1C(=O)N1CCC1 [Example 23, 4-(azetidin-1-ylcarbonyl)-N-{trans-4-[(2-chloro-4-fluorophenyl)carbamoyl]cyclohexyl}-1H-imidazole-5-carboxamide]	≥ 50000
13	O=C(NCCN1CC2(CCO2)C1)c1nc[nH]c1C(=O)N[C@H]1CC[C@H](C(=O)Nc2ccc(F)cc2Cl)CC1 [Example 25, N^5-{trans-4-[(2-chloro-4-fluorophenyl)carbamoyl]cyclohexyl}-N^4-[2-(1-oxa-6-azaspiro[3.3]hept-6-yl)ethyl]-1H-imidazole-4,5-dicarboxamide]	≥ 50000
250	COC[C@@H](C)NC(=O)c1nc[nH]c1C(=O)N[C@H]1CC[C@H](C(=O)Nc2c(F)cc(F)cc2Cl)CC1 [Example 67, N^5-{trans-4-[(2-chloro-4,6-difluorophenyl)carbamoyl]cyclohexyl}-N^4-[(2R)-1-methoxypropan-2-yl]-1H-imidazole-4,5-dicarboxamide]	≥ 50000
62	CN(C)C1CN(C(=O)c2nc[nH]c2C(=O)N[C@H]2CC[C@H](C(=O)Nc3ccc(F)cc3Cl)CC2)C1 [Example 26, N-{trans-4-[(2-chloro-4-fluorophenyl)carbamoyl]cyclohexyl}-4-{[3-(dimethylamino)azetidin-1-yl]carbonyl}-1H-imidazole-5-carboxamide]	≥ 50000
49	COC(C)(C)CNC(=O)c1nc[nH]c1C(=O)N[C@H]1CC[C@H](C(=O)Nc2cc(F)c(F)cc2Cl)CC1 [Example 85, N^5-{trans-4-[(2-chloro-4,5-difluorophenyl)carbamoyl]cyclohexyl}-N^4-(2-methoxy-2-methylpropyl)-1H-imidazole-4,5-dicarboxamide]	24000
8600	O=C(N[C@H]1CC[C@@]2(CCN(c3cccc(Cl)c3)C2=O)CC1)c1[nH]cnc1C(=O)N1CCOCC1 [Example 286, N-[(trans)-2-(3-chlorophenyl)-1-oxo-2-azaspiro[4.5]dec-8-yl]-4-(morpholin-4-ylcarbonyl)-1H-imidazole-5-carboxamide]	≥ 50000
8.7	CCNC(=O)c1nc[nH]c1C(=O)N[C@H]1CC[C@@]2(CCN(c3cc(C)c(F)cc3Cl)C2=O)CC1 [Example 289, N^5-[(trans)-2-(2-chloro-4-fluoro-5-methylphenyl)-1-oxo-2-azaspiro[4.5]dec-8-yl]-N^4-ethyl-1H-imidazole-4,5-dicarboxamide]	16000
